Here are results for eleven molecules from publication PMC9170106, “Pre-clinical evaluation of LASSBio-1491: From in vitro pharmacokinetic study to in vivo leishmanicidal activity” (PLoS ONE, 2022).

The nature of one data set: PAMPA-GIT permeability. To be noted: for Classification / Fa experimental: GIT-PAMPA; for Fa experimental: absorbed fraction. From the text:
(§1) The parallel artificial membrane permeability assay uses 96-well plate in a “sandwich” type system, where one plate overlaps the other (PAMPA). […] The lipid mixture that impregnates the PVDF filter has a different constitution for the permeability tests for the blood-brain barrier (Brain lipid from pig extract in dodecane) and gastro-intestinal tract (L-α soy phosphatidylcholine in dodecane). In the PAMPA BBB and TGI assays, the optical density values obtained in the reading at each selected wavelength, for each of the compounds were analyzed in comparison with the values of several controls. In the case of the BBB, these values were used to elaborate an equation and determine the permeability coefficient (Pe), using a previously elaborated spreadsheet, and, for the TGI, these values were used to determine the absorbed fraction (Fa%), both using the Excel® program.

For data set [1] the following is noted: GIT-PAMPA, ref literature, cited from earlier work; for Fa literature: absorbed fraction. Background: In PAMPA a lipid-coated filter parts donor from acceptor wells.
The next data set is described as follows: PAMPA-BBB permeability. As to conditions: for Classification: PAMPA-BBB.
Excerpt: as §1

In the next data set the test system is spleen cells. Kind of data set: Cytotoxicity against spleen cells (propidium iodide). As to conditions: Mus musculus, 24 h. As for the experimental part: To carry out the suspension preparation of spleen cells, BALB/c mice were euthanized, and an incision was made to remove the spleen. The spleens were macerated using the end of the plungers from a 1 mL syringe in a 70 μm strainer placed in a Petri dish containing RPMI medium. […] After incubation for 4 min at room temperature, the cells were washed with RPMI medium. Subsequently, samples from three animals were pooled and the cell suspension was passed through a 40 μm strainer. Cells were counted in a Neubauer chamber and splenocytes were plated at a concentration of 5 x 10^5 cells per well in a 96-well culture plate. […] Moreover, spleen cells were also cultured just with medium (free of compounds or vehicle) or with DMSO 0.1%. […] After, the propidium iodide incorporation was performed according to the instructions of the Propidium Iodide Kit (Sigma, Copenhagen, Denmark). The splenocytes were analyzed in a FACS Canto II flow cytometer. The data files were saved using FACS Diva software and data analysis was done using Flow Jo software. […] Data obtained from experiments were expressed as the mean ± standard error of the mean (S.E.M.) of spleen died cells and statistical differences between the treated and the vehicle groups of experiments were evaluated by ANOVA and Dunnett hoc tests.

Data set [2] deals with L. major promastigote 5-ASKH substrain. The data set can be described thus: In vitro activity against promastigotes, 5-ASKH. It counts as cell-based, Leishmania major. To be noted: Leishmania major. As for the experimental part:
(§2) L. major promastigotes LV39 (MRHO/SU/59/P) were obtained from João […] Preto Medical School- USP. L. major IOC/[…] promastigotes (MHOM/SU/1973/5-ASKH) were obtained from Leishmania collection of the Oswaldo Cruz Institute-Fiocruz. L. major promastigotes LV39 (MRHO/SU/59/P) and L. major IOC/[…] (MHOM/SU/1973/5-ASKH) were grown in a Schneider's medium (Sigma-Aldrich, St. […] The determination of the leishmanicidal activity of LASSBio-1491 against L. major promastigotes was carried out according to the methodology described by […] and colleagues (1996). […] After 48h of incubation in a Biochemical Oxygen Demand (B.O.D.) incubator, the promastigotes were counted using a hemocytometer. The results obtained were expressed as the mean ± S.E.M. of the number of promastigotes from triplicate cultures of representative assays, with the data analyzed by ANOVA and Dunnett hoc tests, considering a significance level of p < 0.05.

Data set [3] concerns L. major promastigote LV39 substrain. The data set can be described thus: In vitro activity against promastigotes, LV39. It counts as cell-based. To be noted: Leishmania major. The protocol:
as §2

Data set [4] deals with L. major amasitigote 5-ASKH substrain. Kind of data set: In vitro activity against intramacrophage amastigotes, 5-ASKH. It counts as cell-based. To be noted: Leishmania major. As for the experimental part:
(§3) Briefly, female BALB/c mice (6 to 8 weeks old) received 1 mL sterile of 3% sodium thioglycolate by intraperitoneal route (i.p.) and were euthanized after 4 days. The intraperitoneal lavage was collected from the peritoneal cavity of mice using sterile PBS and cells were counted in a hemocytometer. Peritoneal adherent cells (macrophages) were plated at a concentration of 2 x 10^5 cells per well in 24-well culture plates containing glass coverslips. Subsequently, L. major promastigotes (harvested after the third passage) were added at a concentration of 2 x 10^6 parasites per well, aiming to infect the macrophages. […] After 24 hours in an incubator at 37 °C and 5% CO2, the coverslips were washed with PBS and stained with Giemsa-May Grünwald. The number of amastigotes in 100 macrophages was determined by counting using optical microscope (100x objective). Furthermore, the cell culture supernatant was also collected for nitrite measurement using the Griess reaction, an indirect way of determining the concentration of nitric oxide in the supernatant of infected macrophages from the experimental groups. The results obtained were expressed as the mean ± S.E.M. of the number of amastigotes or nitrite concentration from duplicate cultures of representative assays, with the data analyzed by ANOVA and Dunnett hoc tests, considering a significance level of p < 0.05. In addition, the linear regression analysis from the Kc values at employed concentrations was used to determine the IC50.

The test system of data set [5] is L. major amastigote LV39 substrain. Kind of data set: In vitro activity against intramacrophage amastigotes, LV39. The data set is classed as cell-based. As to conditions: Leishmania major. As for the experimental part:
as §3

Data set [6] relates to peritoneal macrophages infected with L. major LV39. The data set can be described thus: Nitrite measurement (Griess reaction) in infected macrophages. The data set is classed as cell-based, BALB/c mice. As to conditions: BALB/c macrophages infected with L. major LV39. The protocol:
as §3, with “In addition, the linear regression analysis from the Kc values at employed concentrations was used to determine the IC50.” left out
For orientation: Griess reagent forms a coloured azo dye with nitrite.

A further data set concerns L. major LV39. Kind of data set: In vivo activity against Leishmania major LV39 substrain. On the set-up: species or system BALB/c mice. As to conditions: LASSBio-1491 10 μmol/Kg/day, glucantime 30 μmol/Kg/day x 28 days, i.p. The protocol: Thus, 6-week-old female BALB/c mice weighing approximately 20 g were used. […] Briefly, ketamine (80mg/kg) and xylazine (8 mg/kg) were simultaneously used to anesthetize the mice by intraperitoneal injection. The promastigotes of L. major LV39 substrain in the stationary phase, harvested after the third passage (obtained from parasites frozen), were inoculated subcutaneously at a concentration of 1x 10^5 parasites in the right ear of mice. […] The size of the lesions was measured using a pachymeter. Thiopental (150 mg/kg, i.p.) was used to euthanize the mice and the quantitative limiting-dilution assay was used to determine the parasite burden of infected ears and draining lymph nodes. The results obtained from experiments were expressed as the mean ± S.E.M. with the data analyzed (size of the lesions or parasite burden) by ANOVA and Dunnett hoc tests, considering a significance level of p < 0.05.

Where only a bound is given, the exact number is not on record here.

On to `Nc1nc2c(ncn2COCCO)c(=O)[nH]1` [Acyclovir], for which, in the data set “PAMPA-GIT permeability”, the Classification result is recorded as “Low (low permeability (0–29%))” and the Fa experimental was 1.70%.

As to `CC(C)NCC(O)COc1ccc(CC(N)=O)cc1` (stereo not drawn) [Atenolol], in “PAMPA-GIT permeability”, the Fa experimental turned out to be 2.26%. Moreover, the Fa literature in data set [1] is 5.2%.

For orientation: Papp means a coefficient for how fast a substance crosses the barrier. Read a high Papp as ready permeation. Consider `Cn1c(=O)c2c(ncn2C)n(C)c1=O` [Caffeine, reference compound], for which the Papp in the data set “PAMPA-BBB permeability” (PAMPA) was 0.81 ×10⁻⁶ cm/s. Further, the Classification entry in “PAMPA-BBB permeability” is recorded as “CNS -”.

Turning to `CO/N=C(\C(=O)N[C@@H]1C(=O)N2C(C(=O)O)=C(CSc3nc(=O)c(=O)[nH]n3C)CS[C@H]12)c1csc(N)n1` [Ceftriaxone], in “PAMPA-GIT permeability”, the Classification result is “Low (low permeability (0–29%))” and the Fa experimental came to 1.37%. Further, in data set [1], the Fa literature is listed as 1% and the Pe literature is given as 0.1 10^−6 cm s^-1.

`O=C(O)Cc1ccccc1Nc1c(Cl)cccc1Cl` [Diclofenac]: in the data set “PAMPA-GIT permeability”, the Classification result is given as “High (high intestinal permeability (70–100%))” and the Fa experimental was found to be 99.28%. In addition, in [1], the Fa literature was 100% and the Pe literature was 12.5 10^−6 cm s^-1.

Regarding `CCn1cc(C(=O)O)c(=O)c2cc(F)c(N3CCNCC3)nc21` [Enoxacin, reference compound], the Classification result in the data set “PAMPA-BBB permeability” is listed as “CNS -”.

As for `CCn1cc(C(=O)O)c(=O)c2cc(F)c(N3CCNCC3)cc21` [Norfloxacin], in the data set “PAMPA-GIT permeability” (PAMPA), the Papp was determined as 0.7 ×10⁻⁶ cm/s.

The term IC50 denotes the concentration that inhibits the measured activity by half. Regarding `N=C(N)c1ccc(OCCCCCOc2ccc(C(=N)N)cc2)cc1` [Pentamidine, reference compound], the IC50 with spleen cells was more than 100 µM; in data set [2] (48 h) it was 0.8 ± 0.1 µM; in data set [3] (promastigote LV39, 48 h) it was 5.7 ± 0.2 µM; in data set [4] (Macrophage, amastigote 5-ASKH in macrophages, 24 h), 17.1 ± 5.6 µM; in data set [5] (Macrophage, amastigote LV39 in macrophages, 24 h) it was 8.1 ± 0.9 µM. Also, the Emax in data set [2] (read-out: Maximum effect (% ± S.E.M.)) is 72.6 ± 2%; in data set [3] (promastigote LV39, read-out: Maximum effect (% ± S.E.M.)), 88.1 ± 0.1%; in data set [4] (amastigote 5-ASKH, read-out: Maximum effect (% ± S.E.M.)), 53.8 ± 1.1%; in data set [5] (amastigote LV39, read-out: Maximum effect (% ± S.E.M.)), 63.2 ± 2.9%. In addition, the “NO production (nitrite)” value in data set [6] is given as “did not”.

For the molecule `CNC(=C[N+](=O)[O-])NCCSCc1ccc(CN(C)C)o1` [Ranitidine], in “PAMPA-GIT permeability”, the Classification entry was “Medium (medium permeability (30–69%))” and the Fa experimental is on record as 38.29%.

Consider `O=C(O)c1cc(/N=N/c2ccc(S(=O)(=O)Nc3ccccn3)cc2)ccc1O` [Sulfasalazine], for which, in data set [1], the Fa literature is 42% and the Pe literature is listed as 0.3 10^−6 cm s^-1.

As for “meglumine antimoniate [glucantime, reference compound]”, in the data set with L. major LV39, the lesion size result is “reduced lesion size only between days 7 and 17”; the “parasite load in draining lymph node” value is given as “reduce the parasite load”; the “parasite load in infected ear” value is on record as “reduce the parasite load”.
